# According to US8389268B2, “Method and culture medium for enhanced detection of mycobacterium” (priority 2009, dated 2013):
# Values joined by “and” are separate entries in the source; they are usually repeats but may differ in a detail not shown here. Equal entries are not always repeated. Where two headings read alike, the source gives them in different places.
# How the values were obtained:
# mycobacteria = type: cell-based, Mycobacterium species
# M. scrofulaceum 19981 = experiment: Time to detection (TTD) of growth in BacT/ALERT MP culture bottles; type: cell-based, Mycobacterium scrofulaceum
# MTB 27294 = experiment: as above; type: cell-based, Mycobacterium tuberculosis; settings: for # Positive: of 4.0 tested
# M. avium 25291 = experiment: as above; type: cell-based, Mycobacterium avium; settings: for # Positive: of 4.0 tested
# MTB 25177 = experiment: as above; type: cell-based, Mycobacterium tuberculosis; settings: for # Positive: of 4.0 tested
# Protocol: For Growth Performance, […] organisms (M. tuberculosis, M. avium, and M. intracellulare) were tested. The conventional MAS formulation was used for these experiments. The new supplement with/without FA supplementation and conventional/old RF were used to rehydrate a lyophilized powder of the conventional or old MB BacT antibiotic supplement (conventional/old MAS) (bioMérieux, Inc.).
# For the new supplement, the new, autoclavable BacT/ALERT® MP bottle (as described hereinabove) was used and for conventional/old RF, the conventional/old MP bottle was used. Before the inoculation of new and conventional/old MP culture bottles (bioMérieux, Inc.) with mycobacteria cultures, 0.5 ml of new supplement with/without FA or 0.5 ml of conventional/old RF were added to one set of the BacT/ALERT® MP culture bottles. The rehydrated conventional MAS (using new supplement with/without FA and conventional/old RF) was added to the second set of MP culture bottles. The growth (as TTD of growth) was compared in these bottles for Mycobacterium avium, Mycobacterium intracellulare and Mycobacterium tuberculosis cultures after inoculating with approximately 0.5×10^3 CFU/ml.
# For the new MAS formulas and NS, a new, autoclaved BacT/ALERT® MP bottle (as described hereinabove) was used and for conventional/old RF, conventional/old MP bottle (bioMérieux, Inc.) was used. […] The conventional MAS (using conventional/old RF) and new MAS formulas (using NS) were added to the second set of MP culture bottles.
# The mycobacteria inoculum was 0.5×10^3 CFU/ml.
# M. intracellulare 13950 = experiment: as above; type: cell-based, Mycobacterium intracellulare; settings: for # Positive: of 4.0 tested
# M. kansasii 12478 = experiment: as above; type: cell-based, Mycobacterium kansasii; settings: for # Positives / # Positive: of 4.0 tested
# M. fortuitum 6841 = experiment: as above; settings: for # Positives / # Positive: of 4.0 tested
# [1] = test system: contaminating respiratory flora (CRF); experiment: Suppression of contaminating respiratory flora (CRF), growth or no growth in BacT/ALERT MP culture bottles; type: cell-based, gram positive or gram negative bacterial and yeast cultures; settings: screen of various drugs
compound,measurement,setting,value
O=C(O)CC(=O)C(=O)O [oxaloacetic acid],reduction in TTD,mycobacteria,did not show a reduction in TTD
N=C(N)NCCC[C@H](N)C(=O)O [L-arginine],reduction in TTD,mycobacteria,did not show a reduction in TTD
CC(O)C(=O)O (centres unmarked) [lactate],reduction in TTD,mycobacteria,did not show a reduction in TTD
"CN[C@H](CC(C)C)C(=O)N[C@H]1C(=O)N[C@@H](CC(N)=O)C(=O)N[C@H]2C(=O)N[C@H]3C(=O)N[C@H](C(=O)N[C@H](C(=O)O)c4cc(O)cc(O)c4-c4cc3ccc4O)[C@H](O)c3ccc(c(Cl)c3)Oc3cc2cc(c3O[C@@H]2O[C@H](CO)[C@@H](O)[C@H](O)[C@H]2O[C@H]2C[C@](C)(N)[C@H](O)[C@H](C)O2)Oc2ccc(cc2Cl)[C@H]1O [VAN, vancomycin]",Average TTD,"M. scrofulaceum 19981; Table 5, Media + VAN 1.75",14.2 days
same,# Positives,"M. scrofulaceum 19981; Table 5, Media + VAN 1.75, of 4.0 tested",4.0
same,Average TTD,"M. scrofulaceum 19981; Table 5, Media + VAN 3.5",14.0 days
same,# Positives,"M. scrofulaceum 19981; Table 5, Media + VAN 3.5, of 4.0 tested",4.0
same,Average TTD,"M. scrofulaceum 19981; Table 5, Media + VAN 7",15.3 days
same,# Positives,"M. scrofulaceum 19981; Table 5, Media + VAN 7, of 1.0 tested",1.0
same,# Positives,MTB 27294,4.0
same,Average TTD,MTB 27294,16.3 days and 16.0 days and 18.3 days
same,# Positives,M. avium 25291,4.0 and 3.0
same,Average TTD,M. avium 25291,20.6 days and 21.2 days
same,# Positives,MTB 25177,2.0
same,Average TTD,MTB 25177,23.7 days
same,# Positives,M. intracellulare 13950,4.0
same,Average TTD,M. intracellulare 13950,9.4 days and 9.7 days and 10.3 days
same,effect on growth (as determined by TTD of growth),mycobacteria,negative effect on the growth
same,# Positives,"M. kansasii 12478; Table 5, Media + VAN 1.75",4.0
same,Average TTD,"M. kansasii 12478; Table 5, Media + VAN 3.5",21.5 days
same,# Positives,"M. kansasii 12478; Table 5, Media + VAN 3.5",2.0
same,Average TTD,"M. fortuitum 6841; Table 5, Media + VAN 1.75",4.7 days
same,# Positives,"M. fortuitum 6841; Table 5, Media + VAN 1.75",4.0
same,Average TTD,"M. fortuitum 6841; Table 5, Media + VAN 3.5",4.1 days
same,# Positives,"M. fortuitum 6841; Table 5, Media + VAN 3.5",4.0
same,Average TTD,"M. fortuitum 6841; Table 5, Media + VAN 7",4.8 days
same,# Positives,"M. fortuitum 6841; Table 5, Media + VAN 7",4.0
O=C(O)C[C@H](O)C(=O)O [L-malate],reduction in TTD,mycobacteria,did not show a reduction in TTD
"O=C(O)CCC(=O)C(=O)O [α-keto glutarate, α-ketoglutarate]",Avg. TTD,MTB 27294,14.3 days and 13.9 days
same,No. of positives,MTB 27294,3
same,Avg. TTD,M. avium 25291,13.5 days and 13.8 days
same,No. of positives,M. avium 25291,3
same,Avg. TTD,M. intracellulare 13950,9.0 days and 8.8 days
same,No. of positives,M. intracellulare 13950,3
same,reduction in time to detection (TTD) of growth,mycobacteria,approximate two days reduction
C[C@@H]1O[C@@H]1P(=O)(O)O [fosfomycin],ability to suppress contaminating respiratory flora (CRF),[1],best choice for suppression of CRF
"CC1(C)S[C@@H]2[C@H](NC(=O)[C@H](NC(=O)N3CCNC3=O)c3ccccc3)C(=O)N2[C@H]1C(=O)O [AZL, azlocillin]",Average TTD,"M. scrofulaceum 19981; Table 4, Media + AZL 12",24.2 days
same,# Positive,"M. scrofulaceum 19981; Table 4, Media + AZL 12, of 4.0 tested",2.0
same,Average TTD,"M. scrofulaceum 19981; Table 4, Media + AZL 48",21.7 days
same,# Positive,"M. scrofulaceum 19981; Table 4, Media + AZL 48, of 3.0 tested",1.0
same,Average TTD,"MTB 27294; Table 4, Media + AZL 12",15.4 days
same,# Positive,"MTB 27294; Table 4, Media + AZL 12",4.0
same,Average TTD,"MTB 27294; Table 4, Media + AZL 24",16.0 days
same,# Positive,"MTB 27294; Table 4, Media + AZL 24",4.0
same,Average TTD,"MTB 27294; Table 4, Media + AZL 48",15.4 days
same,# Positive,"MTB 27294; Table 4, Media + AZL 48",4.0
same,Average TTD,"M. avium 25291; Table 4, Media + AZL 12",20.1 days
same,# Positive,"M. avium 25291; Table 4, Media + AZL 12",4.0
same,Average TTD,"M. avium 25291; Table 4, Media + AZL 24",22.2 days
same,# Positive,"M. avium 25291; Table 4, Media + AZL 24",4.0
same,Average TTD,"M. avium 25291; Table 4, Media + AZL 48",21.2 days
same,# Positive,"M. avium 25291; Table 4, Media + AZL 48",4.0
same,Average TTD,"MTB 25177; Table 4, Media + AZL 12",22.4 days
same,# Positive,"MTB 25177; Table 4, Media + AZL 12",4.0
same,Average TTD,"MTB 25177; Table 4, Media + AZL 24",23.8 days
same,# Positive,"MTB 25177; Table 4, Media + AZL 24",2.0
same,Average TTD,"MTB 25177; Table 4, Media + AZL 48",24.8 days
same,# Positive,"MTB 25177; Table 4, Media + AZL 48",2.0
same,Average TTD,"M. intracellulare 13950; Table 4, Media + AZL 12",16.4 days
same,# Positive,"M. intracellulare 13950; Table 4, Media + AZL 12",4.0
same,Average TTD,"M. intracellulare 13950; Table 4, Media + AZL 24",19.8 days
same,# Positive,"M. intracellulare 13950; Table 4, Media + AZL 24",4.0
same,Average TTD,"M. intracellulare 13950; Table 4, Media + AZL 48",20.0 days
same,# Positive,"M. intracellulare 13950; Table 4, Media + AZL 48",2.0
same,effect on growth (as determined by TTD of growth),mycobacteria,negative effect on the growth
same,Average TTD,"M. kansasii 12478; Table 4, Media + AZL 12",18.5 days
same,# Positive,"M. kansasii 12478; Table 4, Media + AZL 12",3.0
same,Average TTD,"M. kansasii 12478; Table 4, Media + AZL 24",18.9 days
same,# Positive,"M. kansasii 12478; Table 4, Media + AZL 24",4.0
same,Average TTD,"M. kansasii 12478; Table 4, Media + AZL 48",20.5 days
same,# Positive,"M. kansasii 12478; Table 4, Media + AZL 48",1.0
same,Average TTD,"M. fortuitum 6841; Table 4, Media + AZL 12",4.0 days
same,# Positive,"M. fortuitum 6841; Table 4, Media + AZL 12",4.0
same,Average TTD,"M. fortuitum 6841; Table 4, Media + AZL 24",4.2 days
same,# Positive,"M. fortuitum 6841; Table 4, Media + AZL 24",4.0
same,Average TTD,"M. fortuitum 6841; Table 4, Media + AZL 48",4.1 days
same,# Positive,"M. fortuitum 6841; Table 4, Media + AZL 48",4.0
